Data published in patent US8633199B2, “Medicine consisting of concomitant use or combination of DPP-IV inhibitor and other diabetic medicine” (Sanwa Kagaku Kenkyusho Co., Ltd., priority 2008, dated 2014).

Legend:
Type in all cases: in vivo, rat
[1] = tested on: Zucker fatty rats; assay: Oral sucrose loading test, plasma active GLP-1 (ELISA); conditions: oral 3 mg/kg each drug 15 min before sucrose loading, AUC 0-120 min, FIG. 1
Protocol: Effects of compound (I) alone, Miglitol alone and concomitant use of compound (I) and Miglitol on plasma concentration of active GLP-1 during oral sucrose loading test in Slc: Zucker-fa/fa rats (hereinafter abbreviated as Zucker fatty rats)
An operation to insert a polyurethane catheter was performed on the right jugular vein of a Zucker fatty rat (9 weeks old, male, Japan SLC, Inc.) which is an obesity-insulin resistant model, and experiments were performed in the following four groups.
(§1) (1) Control group: purified water was administered at a ratio of 5 ml/kg
(§2) (2) Compound (I) group: the compound (I) dissolved in purified water was administered at a dose of 3 mg/kg (5 ml/kg)
(§3) (3) Miglitol group: Miglitol dissolved in purified water was administered at a dose of 3 mg/kg (5 ml/kg)
(§4) (4) Concomitant use group: the compound (I) and Miglitol dissolved in purified water were administered at respective dose of 3 mg/kg (5 ml/kg)
Purified water, the compound (I) and Miglitol were orally administered respectively to the Zucker fatty rats fasted overnight in each group as described in (1) to (4), and after 15 minutes, a 30% aqueous sucrose solution was administered at a ratio of 10 ml/kg. […] The concentration of an active GLP-1 in the obtained plasma was measured by an enzyme immunoassay (hereinafter abbreviated as ELISA) (GLUCAGON-LIKE PEPTIDE-1 (ACTIVE) ELISA KIT, LINCO Research, Inc., US). […]

[2] = tested on: Zucker fatty rats; assay: Liquid diet loading test, plasma GIP, glucose and insulin; conditions: oral 3 mg/kg each drug 15 min before liquid diet loading; for increase in the plasma glucose concentration (AUC): AUC 0-60 min, FIG. 3; for increase in the GIP concentration in plasma (AUC, total GIP): AUC 0-120 min, FIG. 2
Protocol: Effects of compound (I) alone, Miglitol alone and concomitant use of compound (I) and Miglitol on GIP, glucose and insulin concentrations in plasma during liquid diet loading test in Crlj: ZUC-Lepr^fa Genotype: fa/fa rats (hereinafter abbreviated as Zucker fatty rats)
An operation to insert a polyurethane catheter was performed on the right jugular vein of a Zucker fatty rat (8 weeks old, male, Charles River Laboratories Japan, Inc.), which is an obesity and insulin-resistant model, and experiments were performed in the following four groups.
as §1, §2, §3, §4
Purified water, the compound (I) and Miglitol were orally administered respectively to the Zucker fatty rats fasted overnight in each group as described in (1) to (4), and after 15 minutes, a liquid diet (trade mark: ENSURE H, Meiji Dairies Corporation, Japan) was administered at a ratio of 10 ml/kg to carry out a diet loading test. Blood was collected from the catheter immediately before loading and after loading of the liquid diet, and centrifuged at 4° C., 3000 rpm for 10 minutes to obtain plasma. The GIP concentration in the obtained plasma was measured by an ELISA (RAT/MOUSE GIP (TOTAL) ELISA KIT, LINCO Research, Inc., US), and the plamsa glucose and insulin concentrations was measured by Glucose C2 (Wako Pure Chemical Industries, Ltd., Japan) and ELISA (Rat Insulin ELISA Kit, Shibayagi, Co., Ltd., Japan), respectively. Based on the measured GIP concentration in plasma, AUC from immediately before the loading of the liquid diet to 120 minutes after the loading was calculated. Based on the measured plasma glucose and insulin concentrations, AUC from immediately before the loading of the liquid diet to 60 minutes after the loading was calculated. […] The result of the GIP concentration in plasma is shown in FIG. 2, the result of the plasma glucose level is shown in FIG. 3 and the result of the plasma insulin concentration is shown in FIG. 4.

[3] = tested on: ZDF rats; assay: Oral corn starch loading test, plasma active GLP-1, glucose and insulin; conditions: oral compound (I) 3 mg/kg, Metformin 300 mg/kg, 15 min before corn starch loading, AUC 0-180 min; for increase of the concentration of the active GLP-1 in the plasma (AUC of change): FIG. 5; for plasma glucose elevation (AUC): FIG. 6
Protocol: An operation to insert a polyurethane catheter was performed on the right jugular vein of a ZDF rat (13 weeks old, male, Charles River Laboratories Japan, Inc.), and experiments were performed in the following four groups. (1) Control group: purified water was administered at a ratio of 5 ml/kg (2) Compound (I) group: the compound (I) dissolved in purified water was administered at a dose of 3 mg/kg (5 ml/kg) […] Metformin dissolved in purified water was administered at a dose of 300 mg/kg (5 ml/kg) (4) Concomitant use group: the compound (I) and Metformin dissolved in purified water were administered at respective doses of 3 mg/kg (5 ml/kg) and 300 mg/kg (5 ml/kg) […] Blood was collected from the catheter immediately before administration and after administration of corn starch, and centrifuged at 4° C., 3000 rpm for 10 minutes to obtain plasma. The concentration of the active GLP-1 in the obtained blood plasma was measured by ELISA (GLUCAGON-LIKE PEPTIDE-1 (ACTIVE) ELISA KIT, LINCO Research, Inc., US), the plasma glucose and insulin concentrations of the obtained plasma was measured by Glucose C2 (Wako Pure Chemical Industries, Ltd., Japan) and ELISA (Rat Insulin ELISA Kit, Shibayagi, Co., Ltd., Japan), respectively. Based on the measured concentration of the active GLP-1 in the plasma, the amount of change relative to the concentration immediately before starch administration was obtained. Based on the amount of change relative to the plasma active GLP-1, glucose and insulin concentrations, AUC from immediately before the administration of starch to 180 minutes after the administration was calculated. The result of the plasma active GLP-1 concentration is shown in FIG. 5, the result of the plasma glucose concentration is shown in FIG. 6 and the result of the plasma insulin concentration is shown in FIG. 7.

[4] = tested on: Wistar rats; assay: Oral corn starch loading test, plasma GIP (ELISA); conditions: oral compound (I) 3 mg/kg, Metformin 300 mg/kg, 30 min before corn starch loading, AUC 0-180 min, FIG. 8
Protocol: Effects of compound (I) alone, Metformin alone and concomitant use of compound (I) and Metformin on concentration of GIP in plasma during oral corn starch loading test in Slc: Wistar/ST rats (hereinafter abbreviated as Wistar rats) An operation to insert a polyurethane catheter was performed on the right jugular vein of a Wistar rat (9 weeks old, male, Japan SLC, Inc.), and experiments were performed in the following four groups. (1) Control group: purified water was administered at a ratio of 5 ml/kg (2) Compound (I) group: the compound (I) dissolved in purified water was administered at a dose of 3 mg/kg (5 ml/kg) […] Metformin dissolved in purified water was administered at a dose of 300 mg/kg (5 ml/kg) (4) Concomitant use group: the compound (I) and Metformin dissolved in purified water were administered at respective doses of 3 mg/kg (5 ml/kg) and 300 mg/kg (5 ml/kg) […] Blood was collected from the catheter immediately before administration and after administration of corn starch, and centrifuged at 4° C., 3000 rpm for 10 minutes to obtain plasma. The concentration of the GIP in the obtained plasma was measured by ELISA (RAT/MOUSE GIP (TOTAL) ELISA KIT, LINCO Research, Inc., US). Based on the measured GIP concentration, AUC from immediately before the administration of starch to 180 minutes after the administration was calculated.

SMILES	increase of the concentration of the active GLP-1 in the plasma (AUC of change) [1]	increase in the plasma glucose concentration (AUC) [2]	increase in the GIP concentration in plasma (AUC, total GIP) [2]	increase of the concentration of the active GLP-1 in the plasma (AUC of change) [3]	plasma glucose elevation (AUC) [3]	increase in the concentration of GIP in plasma (AUC, total GIP) [4]
Cc1cc2ncc(C(=O)NCC(C)(C)NCC(=O)N3CCC[C@H]3C#N)cn2n1 [compound (I), (S)—N-(2-(2-(2-cyanopyrrolidin-1-yl)-2-oxoethylamino)-2-methylpropyl)-2-methylpyrazolo[1,5-a]pyrimidine-6-carboxamide]	increased the concentration significantly	no significant difference	no change	increased the concentration significantly	no significant difference	no change
CN(C)C(=N)N=C(N)N [Metformin]	–	–	–	no significant difference	significantly suppressed	significantly suppressed
OCCN1C[C@H](O)[C@@H](O)[C@H](O)[C@H]1CO [Miglitol]	no significant difference	no significant difference	showed a tendency of suppressing	–	–	–
